Laboratory results published in US20100298141A1, “SUBSTITUTED PYRIDINE N-OXIDE HERBICIDES” (E. I. DU PONT DE NEMOURS AND COMPANY, priority 2007, published 2010).

Legend:
Test in all cases: Test F preemergence test
common ragweed = type: in vivo, Ambrosia elation; details: scale 0 to 100
Procedure, shortened: (§1)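 Greenhouse screen: test chemical in surfactant-containing non-phytotoxic solvent applied preemergence to sown seeds or postemergence to sugarcane plants; after 14 to 21 days each species scored visually versus controls.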

barnyardgrass = type: in vivo, Echinochloa crus-galli
Procedure, shortened: as §1

quackgrass = type: in vivo, Elytrigia repens; details: scale 0 to 100
Procedure, shortened: as §1

large crabgrass = type: in vivo, Digitaria sanguinalis; details: scale 0 to 100
Procedure, shortened: as §1

Virginia dayflower = type: in vivo, Commelina virginica; details: scale 0 to 100
Procedure, shortened: as §1

prickly sida = type: in vivo, Sida spinosa; details: scale 0 to 100
Procedure, shortened: as §1

common groundsel = type: in vivo, Senecio vulgaris; details: scale 0 to 100
Procedure, shortened: as §1

guineagrass = type: in vivo, Panicum maximum; details: scale 0 to 100
Procedure, shortened: as §1

Surinam grass = type: in vivo, Brachiaria decumbens; details: scale 0 to 100
Procedure, shortened: as §1

broadleaf signalgrass = type: in vivo, Brachiaria platyphylla; details: scale 0 to 100
Procedure, shortened: as §1

mustard = type: in vivo, Brassica nigra; details: scale 0 to 100
Procedure, shortened: as §1

common purslane = type: in vivo, Portulaca oleracea; details: scale 0 to 100
Procedure, shortened: as §1

goosegrass = type: in vivo, Eleusine indica; details: scale 0 to 100
Procedure, shortened: as §1

dallisgrass = type: in vivo, Paspalum dilatatum; details: scale 0 to 100
Procedure, shortened: as §1

pitted morningglory = type: in vivo, Ipomoea lacunosa; details: scale 0 to 100
Procedure, shortened: as §1

johnsongrass = type: in vivo, Sorghum halepense; details: scale 0 to 100
Procedure, shortened: as §1

bermudagrass = type: in vivo, Cynodon dactylon; details: scale 0 to 100
Procedure, shortened: as §1

naked crabgrass = type: in vivo, Digitaria nuda; details: scale 0 to 100
Procedure, shortened: as §1

itchgrass = type: in vivo, Rottboellia cochinchinensis; details: scale 0 to 100
Procedure, shortened: as §1

kochia = type: in vivo, Kochia scoparia; details: scale 0 to 100
Procedure, shortened: as §1

Italian ryegrass = type: in vivo, Lolium multiflorum; details: scale 0 to 100
Procedure, shortened: as §1

CC(Oc1c(C[S+]([O-])c2ccc(Cl)c[n+]2[O-])c(C(F)(F)F)nn1C)C(F)(F)F (stereo not drawn) [Compound 87]
Plant response rating, Ragweed (common ragweed; 16 g ai/ha, preemergence): 0
Ragweed plant response rating (common ragweed; 125 g ai/ha, preemergence): 90
Plant response rating, Ragweed (common ragweed; Preemergence, 62 g ai/ha): 70
Plant response rating, Ragweed (common ragweed; Preemergence, 31 g ai/ha): 0
Plant response rating, Barnyardgrass (barnyardgrass; 16 g ai/ha, preemergence, scale 0 to 100 (0 no effect, 100 complete control)): 60
Barnyardgrass plant response rating (barnyardgrass; 125 g ai/ha, preemergence, scale 0 to 100): 100
Plant response rating, Barnyardgrass (barnyardgrass; Preemergence, 62 g ai/ha, scale 0 to 100): 100
Plant response rating, Barnyardgrass (barnyardgrass; Preemergence, 31 g ai/ha, scale 0 to 100): 75
Plant response rating, Quackgrass (quackgrass; 16 g ai/ha, preemergence): 60
Quackgrass plant response rating (quackgrass; 125 g ai/ha, preemergence): 90
Plant response rating, Quackgrass (quackgrass; Preemergence, 62 g ai/ha): 80
Plant response rating, Quackgrass (quackgrass; Preemergence, 31 g ai/ha): 60
Plant response rating, Crabgrass, Large (large crabgrass; 16 g ai/ha, preemergence): 30
Crabgrass, Large plant response rating (large crabgrass; 125 g ai/ha, preemergence): 100
Plant response rating, Crabgrass, Large (large crabgrass; Preemergence, 62 g ai/ha): 95
Plant response rating, Crabgrass, Large (large crabgrass; Preemergence, 31 g ai/ha): 65
Plant response rating, Dayflower (Virginia dayflower; 16 g ai/ha, preemergence): 35
Dayflower plant response rating (Virginia dayflower; 125 g ai/ha, preemergence): 100
Plant response rating, Dayflower (Virginia dayflower; Preemergence, 62 g ai/ha): 100
Plant response rating, Dayflower (Virginia dayflower; Preemergence, 31 g ai/ha): 100
Plant response rating, Prickly Sida (prickly sida; 16 g ai/ha, preemergence): 0
Prickly Sida plant response rating (prickly sida; 125 g ai/ha, preemergence): 100
Plant response rating, Prickly Sida (prickly sida; Preemergence, 62 g ai/ha): 75
Plant response rating, Prickly Sida (prickly sida; Preemergence, 31 g ai/ha): 50
Plant response rating, Groundsel (common groundsel; 16 g ai/ha, preemergence): 0
Groundsel plant response rating (common groundsel; 125 g ai/ha, preemergence): 65
Plant response rating, Groundsel (common groundsel; Preemergence, 62 g ai/ha): 0
Plant response rating, Groundsel (common groundsel; Preemergence, 31 g ai/ha): 0
Plant response rating, Guineagrass (guineagrass; 16 g ai/ha, preemergence): 90
Guineagrass plant response rating (guineagrass; 125 g ai/ha, preemergence): 100
Plant response rating, Guineagrass (guineagrass; Preemergence, 62 g ai/ha): 100
Plant response rating, Guineagrass (guineagrass; Preemergence, 31 g ai/ha): 100
Plant response rating, Surinam Grass (Surinam grass; 16 g ai/ha, preemergence): 65
Surinam Grass plant response rating (Surinam grass; 125 g ai/ha, preemergence): 100
Plant response rating, Surinam Grass (Surinam grass; Preemergence, 62 g ai/ha): 100
Plant response rating, Surinam Grass (Surinam grass; Preemergence, 31 g ai/ha): 100
Plant response rating, Signalgrass (broadleaf signalgrass; 16 g ai/ha, preemergence): 0
Signalgrass plant response rating (broadleaf signalgrass; 125 g ai/ha, preemergence): 95
Plant response rating, Signalgrass (broadleaf signalgrass; Preemergence, 62 g ai/ha): 65
Plant response rating, Signalgrass (broadleaf signalgrass; Preemergence, 31 g ai/ha): 15
Plant response rating, Black Mustard (mustard; 16 g ai/ha, preemergence): 0
Black Mustard plant response rating (mustard; 125 g ai/ha, preemergence): 100
Plant response rating, Black Mustard (mustard; Preemergence, 62 g ai/ha): 90
Plant response rating, Black Mustard (mustard; Preemergence, 31 g ai/ha): 30
Plant response rating, Purslane (common purslane; 16 g ai/ha, preemergence): 0
Purslane plant response rating (common purslane; 125 g ai/ha, preemergence): 100
Plant response rating, Purslane (common purslane; Preemergence, 62 g ai/ha): 70
Plant response rating, Purslane (common purslane; Preemergence, 31 g ai/ha): 20
Plant response rating, Goosegrass (goosegrass; 16 g ai/ha, preemergence): 70
Goosegrass plant response rating (goosegrass; 125 g ai/ha, preemergence): 100
Plant response rating, Goosegrass (goosegrass; Preemergence, 62 g ai/ha): 95
Plant response rating, Goosegrass (goosegrass; Preemergence, 31 g ai/ha): 80
Plant response rating, Dallisgrass (dallisgrass; 16 g ai/ha, preemergence): 0
Dallisgrass plant response rating (dallisgrass; 125 g ai/ha, preemergence): 80
Plant response rating, Dallisgrass (dallisgrass; Preemergence, 62 g ai/ha): 60
Plant response rating, Dallisgrass (dallisgrass; Preemergence, 31 g ai/ha): 50
Plant response rating, Morningglory (pitted morningglory; 16 g ai/ha, preemergence): 0
Morningglory plant response rating (pitted morningglory; 125 g ai/ha, preemergence): 90
Plant response rating, Morningglory (pitted morningglory; Preemergence, 62 g ai/ha): 35
Plant response rating, Morningglory (pitted morningglory; Preemergence, 31 g ai/ha): 0
Plant response rating, Johnsongrass (johnsongrass; 16 g ai/ha, preemergence): 40
Johnsongrass plant response rating (johnsongrass; 125 g ai/ha, preemergence): 100
Plant response rating, Johnsongrass (johnsongrass; Preemergence, 62 g ai/ha): 95
Plant response rating, Johnsongrass (johnsongrass; Preemergence, 31 g ai/ha): 75
Plant response rating, Bermudagrass (bermudagrass; 16 g ai/ha, preemergence): 25
Bermudagrass plant response rating (bermudagrass; 125 g ai/ha, preemergence): 95
Plant response rating, Bermudagrass (bermudagrass; Preemergence, 62 g ai/ha): 70
Plant response rating, Bermudagrass (bermudagrass; Preemergence, 31 g ai/ha): 60
Plant response rating, Crabgrass, Naked (naked crabgrass; 16 g ai/ha, preemergence): 95
Crabgrass, Naked plant response rating (naked crabgrass; 125 g ai/ha, preemergence): 100
Plant response rating, Crabgrass, Naked (naked crabgrass; Preemergence, 62 g ai/ha): 100
Plant response rating, Crabgrass, Naked (naked crabgrass; Preemergence, 31 g ai/ha): 100
Plant response rating, Itchgrass (itchgrass; 16 g ai/ha, preemergence): 35
Itchgrass plant response rating (itchgrass; 125 g ai/ha, preemergence): 100
Plant response rating, Itchgrass (itchgrass; Preemergence, 62 g ai/ha): 100
Plant response rating, Itchgrass (itchgrass; Preemergence, 31 g ai/ha): 85
Plant response rating, Kochia (kochia; 16 g ai/ha, preemergence): 0
Kochia plant response rating (kochia; 125 g ai/ha, preemergence): 50
Plant response rating, Kochia (kochia; Preemergence, 62 g ai/ha): 50
Plant response rating, Kochia (kochia; Preemergence, 31 g ai/ha): 0
Plant response rating, Ryegrass, Italian (Italian ryegrass; 16 g ai/ha, preemergence): 100
Ryegrass, Italian plant response rating (Italian ryegrass; 125 g ai/ha, preemergence): 100
Plant response rating, Ryegrass, Italian (Italian ryegrass; Preemergence, 62 g ai/ha): 100
Plant response rating, Ryegrass, Italian (Italian ryegrass; Preemergence, 31 g ai/ha): 100
